According to US20030021810A1 (priority 2001, published 2003):

Assays:
Format in all cases: cell-based
glioma cells [1] = assay: matrigel invasion assay
Excerpt: Matrigel matrix is a reconstituted basement membrane isolated from Englebreth-Holm-Swarm (EHS) mouse sarcoma, a tumor rich in extracellular matrix proteins. Matrigel-invasion chamber consisted of falcon cell culture inserts of 8 μm pore-size with a uniform layer of matrigel matrix that occludes the membrane pores. […] Cells which remained in the upper chamber were scrubbed off the inserts and the invaded cells were fixed and stained with crystal violet.

glioma cells [2] = assay: release of mature MMP-2 into conditioned media (Western blot, gelatinase activity assay); conditions: 50 μM
Description: For these experiments, glioma cells were plated in 96 well (5000 cells/well) or 24 well plates (2.5×10^4/well) in serum containing medium (SCM). After overnight incubation, cell cultures were washed and incubated with serum free medium (SFM) for 24 hrs. Cells were then treated with His-Cltx at concentrations ranging from 30 nM to 3000 nM for 10 min or 30 min at 37° C. Cells were washed and replenished with serum free medium and at post-incubation periods of 10 min, 30 min and 24 hrs, conditioned media was collected from all samples and analyzed for matrix-metalloproteinase-2 activity by gelatinase activity assay as well as Western blots analysis for detection of matrix-metalloproteinase-2 protein. Cells treated with irrelevant His-protein were used as a negative control (untreated cells). […] Conditioned media from 10 wells were pooled for gelatinase activity assay as well as western blot analysis and data shown herein represents an average of three experiments.

glioma cells [3] = assay: in situ zymography of cell surface gelatinolytic activity; conditions: 50 μM, 30 minutes at 37° C.
Description: FITC-labeled DQ gelatin which is intramolecularly quenched (Molecular Probes, Eugene, Oreg.) was used as a substrate for degradation by gelatinases as reported earlier (Oh et al., 1999). Proteolysis by gelatinases yields cleaved FITC-gelatin peptides and the localization of this fluorescence indicates the sites of net gelatinolytic activity. Briefly, glioma cells were plated on 12 mm coverslips. […] Untreated cells served as negative control for this experiment. Cells were then washed with PBS and then incubated with zymography reaction buffer (0.05 M Tris-HCl, 0.15 M NaCl, 5 mM CaCl2 and 0.2 mM NaN3, pH 7.6- the high concentration of azide will prevent the gelatin from phagocytosing and thus allow cell surface gelatinolytic activity to occur) containing 100 μg/ml DQ gelatin at 37° C. overnight. At the end of the incubation period, without fixation or further washes, gelatinolytic activity of the MMP-s was localized and photographed by fluorescence microscopy and the images were acquired by Spot digital camera.

## c1cnc2c(c1)ccc1cccnc12 [1-10 phenanthroline]
Glioma cells [1]; glioma cells
  inhibition of invasion compared with chlorotoxin: essentially identical inhibition
Glioma cells [1]; treatment with Filipin
  change of inhibition of glioma invasion: only minimally affected
Glioma cells [2]
  release of MMP-2 into the medium: blocked the release
Glioma cells [3]
  inhibition of cell surface gelatinolytic activity versus 300 nM chlorotoxin: comparable
